Our source for the fold induction values is US10766869B2, “Triazoles for the treatment of demyelinating dieases” (Vertex Pharmaceuticals Incorporated, priority 2015, dated 2020).

For this assay, the system named is primary rat mixed cortical cells. The assay is described as follows: In vitro myelination assay (MBP positive myelin strands, fold myelin pixels above background). It counts as cell-based. The conditions noted are these: Rattus norvegicus; for fold induction at 1 µM: 1.0 μM compound; for fold induction at 10 µM: 10.0 μM compound. The procedure, abridged: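 Myelination read as total MBP-immunopositive strand pixels per well, imaged at 10× after fixation on day 14 and expressed relative to untreated wells, at 1.0 and 10.0 μM. Cells: dissociated postnatal day 1 rat cortex, cultured two weeks with compound, re-dosed at days 6 and 10.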

[1] abbreviates: relative to baseline of no added compound, read-out: Fold myelin pixels above background, 1.0 μM.
The mark [2] stands for this setting: relative to baseline of no added compound, read-out: Fold myelin pixels above background, 10.0 μM.
Where [3] appears, read: read-out: Fold myelin pixels above background relative to baseline of no added compound.
Where [4] appears, read: relative to baseline of no added compound, read-out: Fold myelin pixels above background.

Where two headings read alike, the source gives them in different places. Where only a bound is given, the exact number is not on record here.

With `Cc1cc(Nc2ncn(-c3ccccc3)n2)cc(N2CCS(=O)(=O)CC2)c1` [Compound 89, N-[3-(1,1-dioxo-1,4-thiazinan-4-yl)-5-methyl-phenyl]-1-phenyl-1,2,4-triazol-3-amine], the fold induction at 1 µM under setting [1] fell in the range of 1000 to 10000. Besides, under setting [2], the fold induction at 10 µM lay in the range of 100 to 1000.
Consider `CCOC1CCN(c2cc(C)cc(Nc3ncn(-c4cc(F)cc(F)c4)n3)c2)CC1` [Compound 976, 1-(3,5-difluorophenyl)-N-[3-(4-ethoxy-1-piperidyl)-5-methyl-phenyl]-1,2,4-triazol-3-amine], for which, under setting [3], the fold induction at 1 µM was 1 to 10 and the fold induction at 10 µM fell in the range of 10 to 100.
As for `COC[C@H](C)NC(=O)C1CN(c2cc(C)cc(Nc3ncn(-c4cc(F)cc(F)c4)n3)c2)C1` [Compound 584, 1-[3-[[1-(3,5-difluorophenyl)-1,2,4-triazol-3-yl]amino]-5-methyl-phenyl]-N-[(1S)-2-methoxy-1-methyl-ethyl]azetidine-3-carboxamide], under setting [4], the fold induction at 1 µM was in the range of 10 to 100 and the fold induction at 10 µM was 1 to 10.
As to `Cc1cc(Nc2ncn(-c3cc(F)cc(F)c3)n2)cc(C2(F)CCN(C3COC3)C2)c1` (stereo not drawn) [Compound 193, 1-(3,5-difluorophenyl)-N-[3-[3-fluoro-1-(oxetan-3-yl)pyrrolidin-3-yl]-5-methyl-phenyl]-1,2,4-triazol-3-amine], the fold induction at 1 µM under setting [1] fell in the range of 100 to 1000. Also, the fold induction at 10 µM under setting [2] was 100 to 1000.
As to `CCOCCOC1CCN(c2cc(C)cc(Nc3ncn(-c4cc(F)cc(F)c4)n3)c2)CC1` [Compound 962, 1-(3,5-difluorophenyl)-N-[3-[4-(2-ethoxyethoxy)-1-piperidyl]-5-methyl-phenyl]-1,2,4-triazol-3-amine], under setting [3], the fold induction at 1 µM was 1 to 10 and the fold induction at 10 µM lay in the range of 1 to 10.
Regarding `Cc1cc(Nc2ncn(-c3cc(F)cc(F)c3)n2)c(F)c(NC2CCOC2)c1` (stereo not drawn) [Compound 765, N3-[1-(3,5-difluorophenyl)-1,2,4-triazol-3-yl]-2-fluoro-5-methyl-N1-tetrahydrofuran-3-yl-benzene-1,3-diamine], under setting [4], the fold induction at 1 µM was in the range of 10 to 100 and the fold induction at 10 µM lay within 1 to 10.
For the molecule `COCC1CCN(c2cc(C(F)(F)F)cc(Nc3ncn(-c4cccc(C(F)F)c4)n3)n2)CC1` [Compound 807, N-[1-[3-(difluoromethyl)phenyl]-1,2,4-triazol-3-yl]-6-[4-(methoxymethyl)-1-piperidyl]-4-(trifluoromethyl)pyridin-2-amine], under setting [3], the fold induction at 1 µM lay within 1 to 10 and the fold induction at 10 µM lay in the range of 1 to 10.
`Fc1cccc(-n2cnc(Nc3cc(C(F)F)cc(N4CCN(C5COC5)CC4)n3)n2)c1` [Compound 525, 4-(difluoromethyl)-N-[1-(3-fluorophenyl)-1,2,4-triazol-3-yl]-6-[4-(oxetan-3-yl)piperazin-1-yl]pyridin-2-amine]: under setting [4], the fold induction at 1 µM lay within 100 to 1000 and the fold induction at 10 µM lay in the range of 10 to 100.
Take `CN1CCN(c2cc(N3CCN(C4COC4)CC3)cc(Nc3ncn(-c4cc(F)cc(F)c4)n3)n2)CC1` [Compound 650, N-[1-(3,5-difluorophenyl)-1,2,4-triazol-3-yl]-6-(4-methylpiperazin-1-yl)-4-[4-(oxetan-3-yl)piperazin-1-yl]pyridin-2-amine]: under setting [4], the fold induction at 1 µM fell in the range of 10 to 100 and the fold induction at 10 µM was in the range of 1 to 10.
`CCN1CCOC(CNc2cc(C)cc(Nc3ncn(-c4cc(F)cc(F)c4)n3)c2)C1` (stereo not drawn) [Compound 893, N3-[1-(3,5-difluorophenyl)-1,2,4-triazol-3-yl]-N1-[(4-ethylmorpholin-2-yl)methyl]-5-methyl-benzene-1,3-diamine]: under setting [3], the fold induction at 1 µM was 1 to 10 and the fold induction at 10 µM was ≤ 1.
For the molecule `c1ccc(-n2cnc(Nc3cc(C4CCOCC4)cc(N4CCOCC4)c3)n2)cc1` [Compound 251, N-(3-morpholino-5-tetrahydropyran-4-yl-phenyl)-1-phenyl-1,2,4-triazol-3-amine], under setting [1], the fold induction at 1 µM fell in the range of 100 to 1000. For the same molecule, the fold induction at 10 µM under setting [2] was in the range of 1 to 10.
Turning to `Cc1cc(Nc2ncn(-c3cc(F)cc(F)c3)n2)cc(N2CCC(CCCO)CC2)c1` [Compound 877, 3-[1-[3-[[1-(3,5-difluorophenyl)-1,2,4-triazol-3-yl]amino]-5-methyl-phenyl]-4-piperidyl]propan-1-ol], under setting [3], the fold induction at 1 µM is 1 to 10 and the fold induction at 10 µM lay in the range of 1 to 10.
For the molecule `[2H]C1([2H])N(C)C([2H])([2H])C([2H])([2H])N(c2cc(C)cc(Nc3ncn(-c4ccccc4)n3)c2)C1([2H])[2H]` [Compound 1111, N-[3-methyl-5-(2,2,3,3,5,5,6,6-octadeuterio-4-methyl-piperazin-1-yl)phenyl]-1-phenyl-1,2,4-triazol-3-amine], under setting [3], the fold induction at 1 µM was 100 to 1000 and the fold induction at 10 µM was ≤ 1.
On to `Cc1cc(Nc2ncn(-c3cnccn3)n2)cc(N2CCN(C3CC(F)(F)C3)CC2)c1` [Compound 75, N-[3-[4-(3,3-difluorocyclobutyl)piperazin-1-yl]-5-methyl-phenyl]-1-pyrazin-2-yl-1,2,4-triazol-3-amine], for which, under setting [1], the fold induction at 1 µM was ≤ 1. Besides, under setting [2], the fold induction at 10 µM was 100 to 1000.
As to `Cc1cc(Nc2ncn(-c3ccc(F)c(F)c3)n2)cc(OCC2CCOC2)c1` (stereo not drawn) [Compound 865, 1-(3,4-difluorophenyl)-N-[3-methyl-5-(tetrahydrofuran-3-ylmethoxy)phenyl]-1,2,4-triazol-3-amine], under setting [3], the fold induction at 1 µM lay in the range of 1 to 10 and the fold induction at 10 µM is 1 to 10.
Regarding `Cc1cc(Nc2ncn(-c3ccc(F)c(F)c3)n2)cc(OCC2CC(F)(F)C2)c1` [Compound 640, N-[3-[(3,3-difluorocyclobutyl)methoxy]-5-methyl-phenyl]-1-(3,4-difluorophenyl)-1,2,4-triazol-3-amine], under setting [4], the fold induction at 1 µM fell in the range of 10 to 100 and the fold induction at 10 µM was in the range of 1 to 10.
For `Cc1ccc(-n2cnc(Nc3cc(F)cc(N4CCN(C5COC5)CC4)c3)n2)cc1F` [Compound 779, 1-(3-fluoro-4-methyl-phenyl)-N-[3-fluoro-5-[4-(oxetan-3-yl)piperazin-1-yl]phenyl]-1,2,4-triazol-3-amine] the same measures were 1 to 10 and 1 to 10.
`Cc1cc(Nc2ncn(-c3cc(F)cc(F)c3)n2)cc(N2CCNC(C)C2)c1` (stereo not drawn) [Compound 362, 1-(3,5-difluorophenyl)-N-[3-methyl-5-(3-methylpiperazin-1-yl)phenyl]-1,2,4-triazol-3-amine]: the fold induction at 1 µM under setting [1] was 100 to 1000. In addition, under setting [2], the fold induction at 10 µM was ≤ 1.
With `N#Cc1cc(Nc2ncn(-c3cccc(F)c3)n2)cc(N2CCN(C3COC3)CC2)c1` [Compound 793, 3-[[1-(3-fluorophenyl)-1,2,4-triazol-3-yl]amino]-5-[4-(oxetan-3-yl)piperazin-1-yl]benzonitrile], under setting [3], the fold induction at 1 µM was in the range of 1 to 10 and the fold induction at 10 µM was ≤ 1.
In the case of `Cc1cc(Nc2ncn(-c3ccccc3)n2)cc(N2CCCN(C)CC2)c1` [Compound 179, N-[3-methyl-5-(4-methyl-1,4-diazepan-1-yl)phenyl]-1-phenyl-1,2,4-triazol-3-amine], the fold induction at 1 µM under setting [1] was 100 to 1000. In addition, the fold induction at 10 µM under setting [2] was ≤ 1.
`COc1cc(OC)cc(-n2cnc(Nc3cc(C4CC4)nc(N4CC[C@@H](F)C4)c3)n2)c1` [Compound 245, 2-cyclopropyl-N-[1-(3,5-dimethoxyphenyl)-1,2,4-triazol-3-yl]-6-[(3R)-3-fluoropyrrolidin-1-yl]pyridin-4-amine]: under setting [1], the fold induction at 1 µM fell in the range of 1 to 10. Further, under setting [2], the fold induction at 10 µM is 10 to 100.
